Legend:
[1] = biological target: T1, Human recombinant PTP-MEG2 (Homo sapiens, UniProt P43378); assay: PTP activity assay (pNPP), PTP-MEG2; assay type: biochemical; conditions: triplicate, mean ± S.E.M.
T1 construct: made in house; host or cells: E. coli
T1 sequence (P43378 1-593): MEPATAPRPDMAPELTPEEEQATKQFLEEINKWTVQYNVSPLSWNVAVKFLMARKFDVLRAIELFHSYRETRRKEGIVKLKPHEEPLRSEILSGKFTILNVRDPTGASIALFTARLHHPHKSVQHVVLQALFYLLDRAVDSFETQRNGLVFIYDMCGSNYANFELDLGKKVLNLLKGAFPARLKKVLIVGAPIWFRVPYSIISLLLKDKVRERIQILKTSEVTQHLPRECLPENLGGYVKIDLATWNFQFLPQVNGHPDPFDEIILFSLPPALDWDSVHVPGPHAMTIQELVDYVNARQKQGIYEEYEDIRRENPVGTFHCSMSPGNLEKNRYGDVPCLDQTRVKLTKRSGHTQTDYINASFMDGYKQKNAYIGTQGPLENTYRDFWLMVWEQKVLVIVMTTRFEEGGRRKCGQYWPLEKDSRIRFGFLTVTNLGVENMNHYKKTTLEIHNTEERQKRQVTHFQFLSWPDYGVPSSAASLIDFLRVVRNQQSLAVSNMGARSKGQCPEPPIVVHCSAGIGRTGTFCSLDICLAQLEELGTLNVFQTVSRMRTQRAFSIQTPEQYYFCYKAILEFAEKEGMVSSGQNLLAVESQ
Text: (§1) Human recombinant PTP-MEG2, SHP2 and CDC25 were expressed in E. coli and purified by Ni-NTA affinity chromatography in our laboratory. The basic chemical reaction catalyzed by a phosphatase converts a phosphosubstrate into a dephosphorylated product and free phosphate which could be measured as a surrogate for phosphatase activity. pNPP(para-nitrophenyl phosphate) was used as phosphatase substrate which can be hydrolyzed by phosphatase to give para-nitrophenol. Subsequently, para-nitrophenol converts into para-nitrophenolate (pNP) with addition of sodium hydroxide stop solution. pNP is an intense yellow compound and could be measured at 405 nm using a spectrophotometer. To begin with, purified recombinant PTP-MEG2, SHP2 and CDC25 (0.05 μg) in 50 μL buffer with 50 mM citrate (pH 6.0), 0.1 M NaCl, 1 mM EDTA, and 1 mM dithiothreitol (DTT) and test compounds were added to each well of a 96-well plate. Blank was prepared by omitting enzyme and substituting an equivalent volume of buffer. After preincubation for 15 min at room temperature, 50 μL of reaction buffer with 2 mM pNPP was added and incubated at 37°C for 30 min. Then, the reaction was stopped by adding 10 μL 0.2 M sodium hydroxide and chilled on ice quickly. In addition, the amount of pNP was measured by detecting the absorption at 405 nm against blank. Finally, IC50 values were determined by analyzing the data using ORIGINPRO 8 software.

Human recombinant SHP2 = biological target: T2, Human recombinant SHP2 (Homo sapiens, UniProt Q06124); assay: PTP activity assay (pNPP), SHP2; assay type: biochemical; conditions: triplicate; read-out: SHP-2 IC50
T2 construct: made in house; host or cells: E. coli
T2 sequence (Q06124 1-593): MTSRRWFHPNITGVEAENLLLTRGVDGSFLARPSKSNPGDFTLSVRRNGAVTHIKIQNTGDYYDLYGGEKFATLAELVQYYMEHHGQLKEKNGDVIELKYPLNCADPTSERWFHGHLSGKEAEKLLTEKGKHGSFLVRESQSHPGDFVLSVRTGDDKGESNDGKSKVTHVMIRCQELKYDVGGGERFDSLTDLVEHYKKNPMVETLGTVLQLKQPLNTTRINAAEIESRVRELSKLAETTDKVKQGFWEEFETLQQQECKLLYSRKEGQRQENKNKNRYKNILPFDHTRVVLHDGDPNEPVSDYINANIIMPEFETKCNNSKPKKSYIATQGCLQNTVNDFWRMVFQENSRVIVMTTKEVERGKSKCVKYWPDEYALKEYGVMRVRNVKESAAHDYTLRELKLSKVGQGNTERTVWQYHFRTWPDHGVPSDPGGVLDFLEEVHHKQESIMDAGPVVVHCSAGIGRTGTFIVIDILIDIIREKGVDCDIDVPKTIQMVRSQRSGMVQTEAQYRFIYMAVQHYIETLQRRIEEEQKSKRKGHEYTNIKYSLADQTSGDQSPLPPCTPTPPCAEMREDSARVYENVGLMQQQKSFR
Text: as §1

Human recombinant CDC25 = assay: PTP activity assay (pNPP), CDC25; assay type: biochemical; conditions: triplicate
Text: as §1

diet-induced obese mice = conditions: ref [20]; cited from earlier work

Row | IC50 [1] [µM] | IC50 (Human recombinant SHP2) [µM] | IC50 (Human recombinant CDC25) [µM] | Compound | effect on insulin signaling, insulin sensitivity and glucose homeostasis (diet-induced obese mice)
1 | 5.35 ± 0.43 | > 50 | > 50 | CC(C)c1cc2c(cc1F)oc1cc(C(=O)O)cc(OCC3CC3)c12 [Compound 11e, 1-(cyclopropylmethoxy)-7-fluoro-8-isopropyldibenzo[b, d]furan-3-carboxylic acid] | –
2 | 2.41 ± 0.17 | > 50 | > 50 | CCCCCCOc1cc(C(=O)OCC2CC2)cc2oc3cc(F)c(C(C)C)cc3c12 [Compound 11a, cyclopropylmethyl7-fluoro-1-(hexyloxy)-8-isopropyldibenzo[b, d]furan-3-carboxylate] | –
3 | 1.06 ± 0.1 | > 50 | > 50 | COc1ccc(COc2cc(C(=O)OCC3CC3)cc3oc4cc(F)c(C(C)C)cc4c23)cc1 [Compound 11b, cyclopropylmethyl7-fluoro-8-isopropyl-1-((4-methoxybenzyl)oxy)dibenzo[b, d]furan-3-carboxylate] | –

More lines, now with the values behind:

Row | Compound | IC50 [1] [µM] | IC50 (Human recombinant SHP2) [µM] | IC50 (Human recombinant CDC25) [µM] | effect on insulin signaling, insulin sensitivity and glucose homeostasis (diet-induced obese mice)
4 | COc1ccc(COc2cc(C(=O)OCC3CCCCC3)cc3oc4cc(F)c(C(C)C)cc4c23)cc1 [Compound 11d, cyclohexylmethyl7-fluoro-8-isopropyl-1-((4-methoxybenzyl)oxy)dibenzo[b, d]furan-3-carboxylate] | 0.83 ± 0.04 | > 50 | > 50 | –
5 | CCOC(=O)c1cc(OCc2ccc(OC)cc2)c2c(c1)oc1cc(F)c(C(C)C)cc12 [Compound 10d, ethyl7-fluoro-8-isopropyl-1-((4-methoxybenzyl)oxy)dibenzo[b, d]furan-3-carboxylate] | 3.39 ± 0.34 | > 50 | > 50 | –
6 | CCOC(=O)c1cc(OC(C)=O)c2c(c1)oc1cc(F)c(C(C)C)cc12 [Compound 8, ethyl 1-acetoxy-7-fluoro-8-isopropyldibenzo[b, d]furan-3-carboxylate] | 3.7 ± 0.22 | > 50 | > 50 | –
7 | CCOC(=O)c1cc(OCC2CC2)c2c(c1)oc1cc(F)c(C(C)C)cc12 [Compound 10a, ethyl 1-(cyclopropylmethoxy)-7-fluoro-8-isopropyldibenzo[b, d]furan-3-carboxylate] | 0.32 ± 0.02 | > 50 | > 50 | –
8 | CCCCCCOc1cc(C(=O)OCC2CCCCC2)cc2oc3cc(F)c(C(C)C)cc3c12 [Compound 11c, cyclohexylmethyl7-fluoro-1-(hexyloxy)-8-isopropyldibenzo[b, d]furan-3-carboxylate] | 3.16 ± 0.32 | > 50 | > 50 | –
9 | CCOC(=O)c1cc(OCC2CCCCC2)c2c(c1)oc1cc(F)c(C(C)C)cc12 [Compound 10c, ethyl 1-(cyclohexylmethoxy)-7-fluoro-8-isopropyldibenzo[b, d]furan-3-carboxylate] | 1.19 ± 0.08 | > 50 | > 50 | –
10 | CCCCCCOc1cc(C(=O)OCC)cc2oc3cc(F)c(C(C)C)cc3c12 [Compound 10b, ethyl 7-fluoro-1-(hexyloxy)-8-isopropyldibenzo[b, d]furan-3-carboxylate] | 1.22 ± 0.11 | > 50 | > 50 | –
11 | COC(=O)c1cc(O)c2c(c1)oc1cc(F)c(C(C)C)cc12 [Compound 9a, methyl 7-fluoro-1-hydroxy-8-isopropyldibenzo[b, d]furan-3-carboxylate] | 5 ± 0.4 | > 50 | > 50 | –
12 | CCOC(=O)/C(=C/C#Cc1cc(C(C)C)c(F)cc1OC)CC(=O)O [compound7] | – | – | – | augment insulin signaling and enhance the insulin sensitivity and glucose homeostasis

From article PMC5503546, “Synthesis, bioactivity, 3D-QSAR studies of novel dibenzofuran derivatives as PTP-MEG2 inhibitors” (Oncotarget, 2017)
